# Source: the CheMixHub viscosity set
# ± gives the uncertainty stated by the source.
# Test: xn = mol fraction of the nth substance listed
smiles,measurement,setting,value
CC(=O)c1ccccc1 + CCOC(C)=O,viscosity,"303.15 K, 100 kPa, x1 = 0.0775",0.4772 ± 0.0034 mPa·s
same,viscosity,"303.15 K, 100 kPa, x1 = 0.1574",0.5756 ± 0.004 mPa·s
same,viscosity,"303.15 K, 100 kPa, x1 = 0.2396",0.6734 ± 0.0045 mPa·s
same,viscosity,"303.15 K, 100 kPa, x1 = 0.3244",0.7711 ± 0.005 mPa·s
same,viscosity,"303.15 K, 100 kPa, x1 = 0.4119",0.8688 ± 0.0056 mPa·s
same,viscosity,"303.15 K, 100 kPa, x1 = 0.5021",0.9666 ± 0.0061 mPa·s
same,viscosity,"303.15 K, 100 kPa, x1 = 0.5953",1.064 ± 0.0067 mPa·s
same,viscosity,"303.15 K, 100 kPa, x1 = 0.6915",1.162 ± 0.0072 mPa·s
same,viscosity,"303.15 K, 100 kPa, x1 = 0.7909",1.26 ± 0.0077 mPa·s
same,viscosity,"303.15 K, 100 kPa, x1 = 0.8937",1.358 ± 0.0083 mPa·s
same,viscosity,"313.15 K, 100 kPa, x1 = 0.0775",0.424 ± 0.0031 mPa·s
same,viscosity,"313.15 K, 100 kPa, x1 = 0.1574",0.5047 ± 0.0036 mPa·s
same,viscosity,"313.15 K, 100 kPa, x1 = 0.2396",0.5856 ± 0.004 mPa·s
same,viscosity,"313.15 K, 100 kPa, x1 = 0.3244",0.6665 ± 0.0045 mPa·s
same,viscosity,"313.15 K, 100 kPa, x1 = 0.4119",0.7474 ± 0.0049 mPa·s
same,viscosity,"313.15 K, 100 kPa, x1 = 0.5021",0.8284 ± 0.0054 mPa·s
same,viscosity,"313.15 K, 100 kPa, x1 = 0.5953",0.9093 ± 0.0058 mPa·s
same,viscosity,"313.15 K, 100 kPa, x1 = 0.6915",0.9902 ± 0.0063 mPa·s
same,viscosity,"313.15 K, 100 kPa, x1 = 0.7909",1.071 ± 0.0067 mPa·s
same,viscosity,"313.15 K, 100 kPa, x1 = 0.8937",1.152 ± 0.0072 mPa·s
same,viscosity,"323.15 K, 100 kPa, x1 = 0.0775",0.374 ± 0.0028 mPa·s
same,viscosity,"323.15 K, 100 kPa, x1 = 0.1574",0.4427 ± 0.0032 mPa·s
same,viscosity,"323.15 K, 100 kPa, x1 = 0.2396",0.5114 ± 0.0036 mPa·s
same,viscosity,"323.15 K, 100 kPa, x1 = 0.3244",0.5801 ± 0.004 mPa·s
same,viscosity,"323.15 K, 100 kPa, x1 = 0.4119",0.6488 ± 0.0044 mPa·s
same,viscosity,"323.15 K, 100 kPa, x1 = 0.5021",0.7175 ± 0.0048 mPa·s
same,viscosity,"323.15 K, 100 kPa, x1 = 0.5953",0.7862 ± 0.0051 mPa·s
same,viscosity,"323.15 K, 100 kPa, x1 = 0.6915",0.8549 ± 0.0055 mPa·s
same,viscosity,"323.15 K, 100 kPa, x1 = 0.7909",0.9236 ± 0.0059 mPa·s
same,viscosity,"323.15 K, 100 kPa, x1 = 0.8937",0.9923 ± 0.0063 mPa·s
O=S(Cl)Cl + CCOC(C)=O,viscosity,"298.15 K, 101 kPa, x1 = 0.225",0.4911 ± 0.013 mPa·s
same,viscosity,"298.15 K, 101 kPa, x1 = 0.316",0.5174 ± 0.013 mPa·s
same,viscosity,"298.15 K, 101 kPa, x1 = 0.534",0.5759 ± 0.015 mPa·s
same,viscosity,"298.15 K, 101 kPa, x1 = 0.7",0.6117 ± 0.016 mPa·s
same,viscosity,"298.15 K, 101 kPa, x1 = 0.83",0.6177 ± 0.016 mPa·s
O=S(Cl)Cl + CCOCC,viscosity,"298.15 K, 101 kPa, x1 = 0.334",0.3365 ± 0.0088 mPa·s
same,viscosity,"298.15 K, 101 kPa, x1 = 0.845",0.548 ± 0.014 mPa·s
ClC(Cl)C(Cl)(Cl)Cl + CCOc1ccccc1,viscosity,"298.15 K, 101 kPa, x2 = 0.0971",2.1 ± 0.06 mPa·s
same,viscosity,"298.15 K, 101 kPa, x2 = 0.2214",1.92 ± 0.05 mPa·s
same,viscosity,"298.15 K, 101 kPa, x2 = 0.4895",1.607 ± 0.042 mPa·s
same,viscosity,"298.15 K, 101 kPa, x2 = 0.6798",1.393 ± 0.037 mPa·s
same,viscosity,"298.15 K, 101 kPa, x2 = 0.903",1.206 ± 0.032 mPa·s
C1COCO1 + CN(C)C=O,viscosity,"298.15 K, 101 kPa, x2 = 0.1012",0.567 ± 0.007 mPa·s
same,viscosity,"298.15 K, 101 kPa, x2 = 0.2021",0.568 ± 0.007 mPa·s
same,viscosity,"298.15 K, 101 kPa, x2 = 0.3028",0.578 ± 0.007 mPa·s
same,viscosity,"298.15 K, 101 kPa, x2 = 0.4032",0.594 ± 0.007 mPa·s
same,viscosity,"298.15 K, 101 kPa, x2 = 0.5033",0.614 ± 0.007 mPa·s
same,viscosity,"298.15 K, 101 kPa, x2 = 0.6032",0.642 ± 0.007 mPa·s
same,viscosity,"298.15 K, 101 kPa, x2 = 0.7028",0.676 ± 0.007 mPa·s
same,viscosity,"298.15 K, 101 kPa, x2 = 0.8021",0.715 ± 0.008 mPa·s
same,viscosity,"298.15 K, 101 kPa, x2 = 0.9012",0.759 ± 0.008 mPa·s
same,viscosity,"308.15 K, 101 kPa, x2 = 0.1012",0.506 ± 0.007 mPa·s
same,viscosity,"308.15 K, 101 kPa, x2 = 0.2021",0.51 ± 0.007 mPa·s
same,viscosity,"308.15 K, 101 kPa, x2 = 0.3028",0.52 ± 0.007 mPa·s
same,viscosity,"308.15 K, 101 kPa, x2 = 0.4032",0.535 ± 0.007 mPa·s
same,viscosity,"308.15 K, 101 kPa, x2 = 0.5033",0.552 ± 0.007 mPa·s
same,viscosity,"308.15 K, 101 kPa, x2 = 0.6032",0.578 ± 0.007 mPa·s
same,viscosity,"308.15 K, 101 kPa, x2 = 0.7028",0.606 ± 0.007 mPa·s
same,viscosity,"308.15 K, 101 kPa, x2 = 0.8021",0.637 ± 0.007 mPa·s
same,viscosity,"308.15 K, 101 kPa, x2 = 0.9012",0.671 ± 0.007 mPa·s
same,viscosity,"318.15 K, 101 kPa, x2 = 0.1012",0.467 ± 0.007 mPa·s
same,viscosity,"318.15 K, 101 kPa, x2 = 0.2021",0.477 ± 0.007 mPa·s
same,viscosity,"318.15 K, 101 kPa, x2 = 0.3028",0.488 ± 0.007 mPa·s
same,viscosity,"318.15 K, 101 kPa, x2 = 0.4032",0.5 ± 0.007 mPa·s
same,viscosity,"318.15 K, 101 kPa, x2 = 0.5033",0.515 ± 0.007 mPa·s
same,viscosity,"318.15 K, 101 kPa, x2 = 0.6032",0.534 ± 0.007 mPa·s
same,viscosity,"318.15 K, 101 kPa, x2 = 0.7028",0.555 ± 0.007 mPa·s
same,viscosity,"318.15 K, 101 kPa, x2 = 0.8021",0.576 ± 0.007 mPa·s
same,viscosity,"318.15 K, 101 kPa, x2 = 0.9012",0.597 ± 0.007 mPa·s
C1COCO1 + CO,viscosity,"303.15 K, 101 kPa, x1 = 0.04585",0.5056 ± 0.02 mPa·s
same,viscosity,"303.15 K, 101 kPa, x1 = 0.09758",0.5088 ± 0.02 mPa·s
same,viscosity,"303.15 K, 101 kPa, x1 = 0.1564",0.516 ± 0.02 mPa·s
same,viscosity,"303.15 K, 101 kPa, x1 = 0.2238",0.5272 ± 0.02 mPa·s
same,viscosity,"303.15 K, 101 kPa, x1 = 0.3019",0.5382 ± 0.02 mPa·s
same,viscosity,"303.15 K, 101 kPa, x1 = 0.3935",0.5516 ± 0.02 mPa·s
same,viscosity,"303.15 K, 101 kPa, x1 = 0.5023",0.5642 ± 0.02 mPa·s
same,viscosity,"303.15 K, 101 kPa, x1 = 0.6337",0.5454 ± 0.02 mPa·s
same,viscosity,"303.15 K, 101 kPa, x1 = 0.7956",0.5446 ± 0.02 mPa·s
CN(C)P(=O)(N(C)C)N(C)C + CO,viscosity,"303.15 K, 101.3 kPa, x1 = 0.0993",0.829 ± 0.013 mPa·s
same,viscosity,"303.15 K, 101.3 kPa, x1 = 0.2036",1.145 ± 0.016 mPa·s
same,viscosity,"303.15 K, 101.3 kPa, x1 = 0.2984",1.401 ± 0.02 mPa·s
same,viscosity,"303.15 K, 101.3 kPa, x1 = 0.3941",1.63 ± 0.026 mPa·s
same,viscosity,"303.15 K, 101.3 kPa, x1 = 0.4882",1.846 ± 0.031 mPa·s
same,viscosity,"303.15 K, 101.3 kPa, x1 = 0.5898",2.07 ± 0.039 mPa·s
same,viscosity,"303.15 K, 101.3 kPa, x1 = 0.6978",2.308 ± 0.047 mPa·s
same,viscosity,"303.15 K, 101.3 kPa, x1 = 0.778",2.476 ± 0.055 mPa·s
same,viscosity,"303.15 K, 101.3 kPa, x1 = 0.8966",2.722 ± 0.066 mPa·s
